Our source for the Papp values is PubChem BioAssay AID1508612.

Usually Papp stands for the rate of passage across a membrane or cell layer, normalised by area and donor concentration.

The data set in a line: passive permeability, PAMPA, ADME assay (AID 1508612). The note with it: pH 7.4, 30.0 min, 50.0 µM.

“And” between values parts separate entries of the source, which are not always exact repeats. Identical values can stand only once.

As to `CCOc1ccc(CNc2ccc3c(c2)ncn3C)cc1`, the Papp is over 1000 ×10⁻⁶ cm/s.
In turn, `CC1=C(C(=O)Nc2nc3ccccc3s2)C(c2[nH]ncc2Cl)N=C(Nc2nc3ccccc3o2)N1` (configuration not stated) displayed a Papp of 6 ×10⁻⁶ cm/s.
With `NC(=O)N1CCCC(C(=O)N2CCCN(c3ccc(F)cc3)CC2)C1` (configuration not stated), the apparent permeability (Papp) turned out to be 111 ×10⁻⁶ cm/s.
With `COc1cc2nccc(Oc3ccc(NC(=O)Nc4cc(C)on4)c(Cl)c3)c2cc1OC` the figure was 328 ×10⁻⁶ cm/s; with `Cc1cn2c(-c3cn[nH]c3)cnc2c(Nc2ccc(C(=O)N3CCNCC3)cc2F)n1`, under 1 ×10⁻⁶ cm/s.
Take `COc1cccc(CNc2ccc(S(=O)(=O)Nc3cccc(N4CCNCC4)c3)cc2)c1O`: the Papp was 16 ×10⁻⁶ cm/s.
The molecule `COc1ccc(OC)c(-c2nc3c(C#N)c[nH]n3c2NC2CCCCC2)c1` came in with an apparent permeability (Papp) of over 1000 ×10⁻⁶ cm/s.
For `COc1ccc(-n2nc(C)c([C@@H]3C=C[C@@H](NCc4ccc(F)cc4)C3)c2C)cc1`, the apparent permeability (Papp) was over 1000 ×10⁻⁶ cm/s.
On to `Nc1nc2c(s1)C(c1cccc(Cl)c1Cl)CC(=O)N2` (configuration not stated), for which the Papp worked out at 505 ×10⁻⁶ cm/s.
With `COCCNc1ncnc2onc(-c3ccc(F)cc3)c12` the figure was 458 ×10⁻⁶ cm/s; with `O=C(NC1CC1)C1CCCN1C(=O)c1cccc(-c2ccccn2)c1` (configuration not stated), 11 ×10⁻⁶ cm/s; with `CS(=O)(=O)c1ccc(-c2nnc(/C=C/c3nnc(-c4ccc(C#N)cc4)o3)n2-c2ccccc2Cl)nc1`, over 1000 ×10⁻⁶ cm/s.
Next, `CSc1nc(N)cc(Oc2ccc(-c3nc(Nc4cccc(C(F)(F)F)c4)n[nH]3)cc2)n1`: 633 ×10⁻⁶ cm/s; `Cc1ccc2oc(NC3=NC4(CCCC4)C4=C(CCCC4=O)N3)nc2c1`: 543 ×10⁻⁶ cm/s.
Consider `Nc1nc2c(s1)C(c1cc(Cl)ccc1F)CC(=O)N2` (configuration not stated), for which the Papp is 476 ×10⁻⁶ cm/s.
With `O=C(NCCN1CCOCC1)C1CC(=O)N(c2n[nH]c3cc(Br)ccc23)C1` (configuration not stated), the Papp turned out to be 1.8 ×10⁻⁶ cm/s.
On to `Cc1cccc(-n2c(C)cc(C=C(C#N)C#N)c2C)c1`, for which the Papp is 43 ×10⁻⁶ cm/s.
Next, `COc1ccnc(NC(=S)N2CCN(c3cccc(C(F)(F)F)n3)CC2)c1`: over 1000 ×10⁻⁶ cm/s.
Next, `CSc1ccc(-c2cnc(N3CCC(C(N)=O)CC3)s2)cc1`: 58.9 ×10⁻⁶ cm/s; `COc1ccc(CN2CCc3nc(N4CCN(c5ccc(F)cc5)CC4)ncc3C2)c(OC)c1OC`: over 1000 ×10⁻⁶ cm/s; `CC(C)c1nc(CN(C)C(=O)N[C@H](C(=O)N[C@@H](Cc2ccccc2)C[C@H](O)[C@H](Cc2ccccc2)NC(=O)OCc2cncs2)C(C)C)cs1`: over 1000 ×10⁻⁶ cm/s.
Molecule `Cc1ccnc(NC(=S)N2CCN(c3ncc(C(F)(F)F)cc3Cl)CC2)c1` showed a Papp of 930 ×10⁻⁶ cm/s.
Consider `CCOC(=O)CCNc1cc(N2CCc3ccccc3CC2)nc(-c2cccnc2)n1`, for which the Papp was 951 ×10⁻⁶ cm/s.
Next, `COc1ccc(C2CC(=O)Nc3nc(N)sc32)cc1OC` (configuration not stated): 36.1 ×10⁻⁶ cm/s; `COc1ccccc1C(=O)Nc1nnc(SCc2cc(=O)c3ccccc3[nH]2)s1`: 287 ×10⁻⁶ cm/s; `Cc1cccc(-n2cnc3cc(C(=O)N4CCCC(C(C)C)C4)ccc32)c1` (configuration not stated): over 1000 ×10⁻⁶ cm/s.
Molecule `COc1cc(Nc2nc(-c3ccncc3)nc3ccccc23)ccc1Cl` had a Papp of 19.8 ×10⁻⁶ cm/s.
In the case of `CCn1c(SCc2ccc(C#N)cc2)nnc1-c1cccc(Cl)c1`, the apparent permeability (Papp) worked out at 924 ×10⁻⁶ cm/s.
On to `NC(=O)C1CCN(c2nc(-c3cccc(N)c3)cs2)CC1`, for which the Papp turned out to be 86.8 ×10⁻⁶ cm/s.
The molecule `Cc1cccc(-n2nc(C)c3c2NC(=O)CSC3c2ccccc2Cl)c1` (configuration not stated) came in with a Papp of over 1000 ×10⁻⁶ cm/s.
Next, `Cc1ccc(-c2csc(NC(=O)c3ccccc3NS(=O)(=O)c3ccc(C)cc3)n2)cc1`: 35.6 ×10⁻⁶ cm/s; `Fc1cc(Nc2nc(-c3ccncc3)nc3ccccc23)ccc1N1CCCCC1`: over 1000 ×10⁻⁶ cm/s.
On to `CC(=O)c1ccc(N[S+](=O)([O-])c2cccc(NC(=O)c3[nH]c(C)c(C(C)=O)c3C)c2)cc1`, for which the Papp is under 1 ×10⁻⁶ cm/s.
Next, `CC(=O)N1CCN(c2ccc(OCc3nn(C)c(C)c3-c3cccc4c(CCCOc5cc(C)c(Cl)c(C)c5)c(C(=O)O)n(Cc5cccnc5)c34)cc2)CC1`: 370 ×10⁻⁶ cm/s.
The molecule `O=[S+]([O-])(Nc1ccc(N2CCNCC2)cc1)c1ccc(NCc2ccc(Br)cc2O)cc1` displayed an apparent permeability (Papp) of 7.93 ×10⁻⁶ cm/s.
Next, `Cc1cccc(-c2noc([C@@H]3Cc4nc[nH]c4CN3C(=O)CC(C)(C)CC(=O)O)n2)c1`: 34.2 ×10⁻⁶ cm/s.
Next, `CC(C)(C)OC(=O)N1CCN(c2ccc(NCc3ccc(-c4ccc(C#N)cc4)o3)cc2)CC1`: 338 ×10⁻⁶ cm/s.
Take `COc1ccc(CNC(=O)c2sc3nc(C)cc(C)c3c2N)cc1`: the apparent permeability coefficient (Papp) is over 1000 ×10⁻⁶ cm/s.
With `CN(C)c1cccc(-c2nnc(N3CCC(C(N)=O)CC3)s2)c1` the figure was 119 ×10⁻⁶ cm/s.
Regarding `O=C(C=Cc1cccnc1)NCCCCC1CCN(C(=O)c2ccccc2)CC1`, the Papp stood at 130 ×10⁻⁶ cm/s.
With `CCOc1ccc(C(C)CNC(=O)c2cc3sccc3n2Cc2ccccc2)cc1OCC` (configuration not stated) the figure was over 1000 ×10⁻⁶ cm/s.
Take `O=C(c1ccccc1)N1CCC(c2nn(-c3ccc(F)cc3)c(=O)[nH]2)CC1`: the Papp was 679 ×10⁻⁶ cm/s.
With `COC12C(COC(N)=O)C3=C(C(=O)C(C)=C(N)C3=O)N1CC1C2N1C` (configuration not stated) the figure was 1.95 ×10⁻⁶ cm/s; with `COC(=O)c1ccc(Nc2nc(-c3ccncc3)nc3ccccc23)cc1OC`, 676 ×10⁻⁶ cm/s; with `O=C(Nc1ccccc1C(=O)Nc1ccccc1C(=O)NCc1ccco1)c1ccco1`, over 1000 ×10⁻⁶ cm/s.
As to `Cc1cc(N)c2cc(NC(=O)Nc3ccc4nc(C)cc(N)c4c3)ccc2n1`, the Papp was under 1 ×10⁻⁶ cm/s.
With `CCOc1ccc(CN2C(=O)c3ccccc3Sc3ccc(C(=O)NC4CCC(C)CC4)cc32)cc1` (configuration not stated) the figure was under 1 ×10⁻⁶ cm/s; with `CCOC(=O)c1ccc(-c2ccc3ncnc(NCCc4cnc[nH]4)c3c2)o1`, over 1000 ×10⁻⁶ cm/s; with `CCCCOC(=O)c1ccnc2cc(C(OCCN3CCCCC3)c3ccccc3Cl)sc12` (configuration not stated), 828 ×10⁻⁶ cm/s.
Next, `COc1ccc(Cl)cc1NC(=O)c1sc2nc3c(cc2c1N)N1CCC3CC1`: 55 ×10⁻⁶ cm/s; `N#Cc1nc(-c2cccc3ccccc23)oc1NCc1ccccc1`: 22.9 ×10⁻⁶ cm/s.
Next, `CC1Cc2cc(S(=O)(=O)NCc3ccc(N(C)C)cc3)ccc2N1C(=O)C1CCC1` (configuration not stated): over 1000 ×10⁻⁶ cm/s; `O=C(Nc1ccccc1O)c1ccc(NC(=O)C2CC2)cc1`: 117 ×10⁻⁶ cm/s; `CCN1CCC(N(Cc2ccc3c(c2)OCO3)C(=O)Nc2cc(Cl)ccc2C(=O)OC)CC1`: over 1000 ×10⁻⁶ cm/s.
Molecule `Cc1cc(SCc2sc(-c3ccc(C(F)(F)F)cc3)nc2C)ccc1OCC(=O)O` displayed an apparent permeability (Papp) of 520 ×10⁻⁶ cm/s.
For `Cc1ccc(NC2=C(c3ccc(C(F)(F)F)cc3)C(=O)c3ccccc32)cc1F`, the Papp was under 1 ×10⁻⁶ cm/s.
Next, `CNc1ccc(Br)cc(C(=O)/C=C/c2ccc(OC)cc2OC)c1=O`: 143 ×10⁻⁶ cm/s; `COc1ccc(NC(=O)c2[nH]c(C)c(C(C)=O)c2C)cc1S(=O)(=O)Nc1cccc(C#N)c1`: 30.9 ×10⁻⁶ cm/s.
`Cc1ccc(S(=O)(=O)Nc2cnccc2C(=O)Nc2ccc(-c3nc4ccccc4[nH]3)cc2)cc1` showed an apparent permeability coefficient (Papp) of 2.2 ×10⁻⁶ cm/s.
Next, `CCOc1ccc(CCNC(=O)c2cc3ccccc3n2CCN2CCOCC2)cc1OCC`: over 1000 ×10⁻⁶ cm/s; `COC(=O)CNC(=O)c1nc(-c2ccc([S+](C)(=O)[O-])cc2)c2cnccn12`: 9.67 ×10⁻⁶ cm/s.
Next, `COc1ccccc1NC(=O)C1=C(C)Nc2c(C(=O)Nc3cccc(C)c3)cnn2C1c1ccccc1Cl` (configuration not stated): 751 ×10⁻⁶ cm/s.
Next, `COC(=O)Nc1nc2ccc(C(=O)c3ccccc3)cc2[nH]1`: 282 ×10⁻⁶ cm/s; `CC(=O)N1CCC2(CCCN(c3ccc(-c4ccccc4)cc3)C2)CC1`: over 1000 ×10⁻⁶ cm/s; `O=c1c(O)c(-c2ccc(O)cc2)oc2cc(O)cc(O)c12`: 46.6 ×10⁻⁶ cm/s.
`Cc1sc(NC(=O)Cc2ccc3c(c2)OCO3)nc1-c1ccc2c(c1)CCN2C`: the apparent permeability coefficient (Papp) was under 1 ×10⁻⁶ cm/s.
In turn, `O=C(Cc1ccc(Cl)c(Cl)c1)Nc1ccc(S(=O)(=O)Nc2nncs2)cc1` came in with a Papp of 1.5 ×10⁻⁶ cm/s.
With `CC(=O)c1c(C)c(C(=O)Nc2cccc([S+](=O)([O-])N3CCCCCC3)c2)n(C)c1C` the figure was over 1000 ×10⁻⁶ cm/s; with `CCOc1ccc(Nc2nc(C)c(NC(=O)c3ccc(C)cc3)c(Nc3ccc(OCC)cc3)n2)cc1`, 211 ×10⁻⁶ cm/s; with `CC1(C)CC(=O)C2=C(C1)NC(Nc1nc3ccccc3o1)=NC2c1ccccc1Cl` (configuration not stated), over 1000 ×10⁻⁶ cm/s.
With `COc1cc(OC)cc(-c2csc(N3CCC(C(N)=O)CC3)n2)c1` the figure was over 1000 ×10⁻⁶ cm/s.
With `CCC[C@H](NC(=O)C(C#N)=Cc1cccc(Br)n1)c1ccccc1` the figure was over 1000 ×10⁻⁶ cm/s; with `Nc1cccc(CNc2ccc(S(=O)(=O)Nc3nccs3)cc2)c1O`, under 1 ×10⁻⁶ cm/s.
Turning to `CCn1c(C(=O)NCCc2ccc(OC)cc2)cc2sccc21`, the Papp came to 721 ×10⁻⁶ cm/s.
With `CN=C1CN=C(c2ccc[nH]2)c2cc(Cl)ccc2N1`, the Papp was 354 ×10⁻⁶ cm/s and > 1000 ×10⁻⁶ cm/s.
In turn, `Fc1cccc(-c2ccc(Nc3nc(-c4ccncc4)nc4ccccc34)cc2F)c1` registered an apparent permeability coefficient (Papp) of 49 ×10⁻⁶ cm/s.
The molecule `O=C(Nc1nc(-c2ccccc2)cs1)c1ccncc1NS(=O)(=O)c1cccc2cccnc12` had a Papp of 445 ×10⁻⁶ cm/s.
Molecule `COc1ccc(Cl)cc1C(=O)Nc1ccc(NC(=O)c2ccco2)cc1` displayed a Papp of 971 ×10⁻⁶ cm/s.
Take `CN(C)C(=O)C1CCN(c2nc(-c3ccc(Br)cc3)cs2)CC1`: the apparent permeability coefficient (Papp) came out at 583 ×10⁻⁶ cm/s.
`C[S+](=O)([O-])c1ccc(-c2nc(C(=O)N3CCOCC3)n3ccncc23)cc1` had a Papp of 8.31 ×10⁻⁶ cm/s.
With `Cc1cc(-c2nnc3n2CCCCC3)c(C)n1-c1ccccc1` the figure was 581 ×10⁻⁶ cm/s; with `NC(=O)C1CCN(c2ncc(-c3cccc(N4CCCC4)c3)s2)CC1`, 95.6 ×10⁻⁶ cm/s; with `COC(=N)c1nc2ccc3ncnc(Nc4ccc(F)cc4Br)c3c2s1`, 28 ×10⁻⁶ cm/s.
Next, `O=C(NC1CCCc2c1[nH]c1ccccc21)c1ccccc1` (configuration not stated): 135 ×10⁻⁶ cm/s.
Next, `COc1cccc(NS(=O)(=O)c2ccc(NCc3cccc(OC)c3O)cc2)c1`: 603 ×10⁻⁶ cm/s; `Cc1cc2c(C(N)=O)cccc2n1-c1nc2c(c(NCc3ccccc3)n1)COCC2`: 597 ×10⁻⁶ cm/s.
Molecule `Oc1ccc2[nH]cc(CCCCN3CC=C(c4ccccc4)CC3)c2c1` had an apparent permeability (Papp) of over 1000 ×10⁻⁶ cm/s.
With `C[C@@H]1C(=O)O[C@H]2[C@H]1CC[C@@]1(C)Cc3sc(NS(=O)(=O)Cc4ccccc4)nc3[C@@H](C)[C@H]21` the figure was over 1000 ×10⁻⁶ cm/s; with `Cc1ccc(S(=O)(=O)Nc2cc(Cl)ccc2C(=O)Nc2nc(-c3ccccc3)cs2)cc1`, 23.4 ×10⁻⁶ cm/s; with `CCCCCCCCc1ccc(CCC(N)(CO)CO)cc1`, 5.3 ×10⁻⁶ cm/s.
Next, `Cc1sc(NC(=O)Cc2ccc3c(c2)OCO3)nc1-c1ccc2c(c1)CCN2C(=O)c1ccccc1F`: 1.4 ×10⁻⁶ cm/s.
`O=C(Nc1cccc(OC(F)(F)F)c1)c1cc(-c2ccc[nH]2)n[nH]1` gave an apparent permeability (Papp) of 26.6 ×10⁻⁶ cm/s.
